Measurements from patent US6916843B1, “Anti-inflammatory actions of cytochrome P450 expoxygenase-derived eicosanoids” (The United States of America as represented by the …, priority 1999, dated 2005).

Columns and labels:
ICAM-1 expression = assay: Cell-surface enzyme immunoassay of TNF-α-induced ICAM-1 expression in endothelial cells; type: cell-based, human; conditions: 100 nM, TNF-α 10 ng/ml
Procedure: (§1) FIG. 2 is a set of bar graphs of cell-surface enzyme immunoassays. […] The difference between treatment with TNF-α alone and in the presence of [11,12]-EET were statistically significant (*p<0.05, **p<0.01), OD, optical density. […] After stimulation with TNF-α (10 ng/ml) in the presence or absence of EET, promoter activity was determined relative to basal activity. *p<0.01 vs. TNF-α alone.
(§2) To determine the biological effects of EETs, we treated tumor necrosis factor alpha (TNF-α)-stimulated human endothelial cells with physiological relevant concentrations (1-100 nM) of [5,6]-EET, [8,9]-EET, [11,12]-EET, [14,15]-EET, [11,12]-DHET.

E-selectin expression = assay: Cell-surface enzyme immunoassay of TNF-α-induced E-selectin expression in endothelial cells; type: cell-based, human; conditions: 100 nM, TNF-α 10 ng/ml
Procedure: as §1, §2

RelA = assay: Cellular localization of RelA in TNF-α-stimulated endothelial cells; type: cell-based; conditions: co-treatment with TNF-α
Text: Co-treatment with [11,12]-EET prevented the nuclear accumulation of RelA. Since the nuclear translocation of RelA requires the degradation of its endogenous cytoplasmic inhibitor, inhibitor kappa B (IκB-α), we followed the fate of IκB-α after TNF-α stimulation in the presence or absence of [11,12]-EET. Stimulation of human endothelial cells with TNF-α caused a rapid and almost complete disappearance of IκB-α which was prevented by co-treatment with [11,12]-EET, but not [14,15]-EET.

IκB kinase (IKK) = assay: IKK activity assay with GST-IκB-α substrate, TNF-α-stimulated endothelial cells; type: biochemical, human; conditions: 100 nM, TNF-α 10 ng/ml, 15 min
Procedure: A set of gel shift assays was performed. […] In some assays, [11,12]-EET (100 nM) was also added directly to the IKK assay (in vitro). As a control for nonspecific phosphorylation, the assay was performed without the addition of immunoprecipitated IKK (no enzyme) or in the presence of a IκB-α mutant (ΔSer 32, Ser 36→Thr) as substrate. The assay was performed three times with similar results.
Specificity of IKB was determined by the complete absence of phosphorylation when the mutated IκB-α substrate, GST-1κB-α (Δ32,36: S→T) which cannot be phosphorylated at serine residues 32 and 36, was substituted for wild-type GST-IκB-α.

VCAM-1 = VCAM-1 expression in the murine carotid artery after TNF-α; type: in vivo; conditions: mouse, intra-arterial infusion 100 ng/kg/min, TNF-α 10 μg/kg i.p., 5 hours
Procedure: FIG. 3A is a graph showing the expression of VCAM-1 in the murine carotid artery at 5 hours after treatment with intraperitaneal injection of TNF-α (10 μg/kg) alone or in combination with continuous intra-arterial infusion of [11,12]-EET (100 ng/kg/min). FIG. 3B is a bar graph showing the effect of [11,12]-EET on TNF-α induced mononuclear cell adhesion in the murine carotid artery. The mononuclear cells (U937) were perfused through the carotid artery at a wall shear stress of 3 dyn/cm^2. Intra-arterial infusion of vehicle (saline) or [14,15]-EET (100 ng/kg/min) had no effect. […] All experiments except the [14,15]-EET infusion were performed in duplicate.
To determine the functional relevance of EETs in vascular inflammation, we tested [11,12]-EET and its regioisomer [14,15]-EET in a recently developed in vivo model of TNF-α-induced VCAM-1 -mediated mononuclear cell adhesion in the murine carotid artery. […]
Cell rolling and adhesion were recorded on videotape using stroboscopic epifluoresence illumination with an introvital microscope (objective Zeiss 20×, 0.5 numerical aperture). […] In separate experiments, VCAM-1 expression was measured in paraffin-sections (5 μm thick) of carotid arteries harvested from mice treated in the same way. […]

VCAM-1 expression = assay: Cell-surface enzyme immunoassay of cytokine-induced VCAM-1 expression in endothelial cells; type: cell-based, human; conditions: 100 nM, 24 hours
endogenous EET levels = assay: Endogenous EET levels in BAECs (gas chromatography/mass spectrometry); type: cell-based, bovine; conditions: CYP2J2 transfection vs control BAECs
Text: In addition to the cyclooxygenase and lipoxygenase pathways, the P450 monooxygenase pathway is an important member of the cardiac arachidonic acid metabolic cascade (Wu et al., 272 J. Biol. Chem 12551 (1997)).

In the case of CCCCC/C=C\C[C@H]1O[C@H]1C/C=C\C/C=C\CCCC(=O)O [[11,12]-EET], the “inhibition of ICAM-1 expression” value (ICAM-1 expression) is reported as “inhibited”, the “inhibition of E-selectin expression” value (E-selectin expression) is reported as “inhibited” and the “effect on TNF-α-induced nuclear accumulation of RelA” value (RelA) is reported as “prevented”. The “inhibition of TNF-α-induced IKK activity” value (IκB kinase (IKK)) was greater than 90%, the “VCAM-1 expression in carotid artery” value (VCAM-1) was “decreased” and the “inhibition of IL-1α-induced VCAM-1 expression” value (VCAM-1 expression; IL-1α) was “inhibited”. The “inhibition of LPS-induced VCAM-1 expression” value (VCAM-1 expression; LPS 10 ng/ml) was “inhibited”.

For “CYP2J2: CYP2J2 cDNA (1.9 kb) subcloned into plasmid pcDNA3.1, transfected into endothelial cells”, the “increase of endogenous EET levels” value (endogenous EET levels) was “approximately 30%”.
